Experimental data published in patent publication US10517861B2, “Biomarkers for predicting and assessing responsiveness of endometrial cancer subjects to lenvatinib compounds” (Eisai R&D Management Co., Ltd., priority 2013, dated 2019).

Tested on: patients with advanced or recurrent endometrial cancer (EC)
Test: Phase II study of E7080 in patients with advanced or recurrent endometrial cancer: tumor response (ORR) and survival (PFS, OS)
Format: in vivo, human
Method: Purpose: Angiogenesis is regulated by signaling through multiple growth factor receptors, such as VEGF receptor and FGF receptor. VEGF receptor signaling is also associated with immune cell function. E7080 is an oral angiogenesis inhibitor targeting multiple receptor tyrosine kinase; VEGFR1-3, FGFR1-4, RET, KIT, and PDGFRβ. A phase II study was performed in patients with advanced or recurrent endometrial cancer (EC) following 1 or 2 prior platinum-based treatments (Tx). The importance of angiogenesis in EC highlights the need to understand clinical mechanisms of escape from anti-angiogenic therapy. This clinical biomarker analysis was conducted to identify predictive markers of clinical benefit in EC patients upon E7080 treatment. Circulating cytokine and angiogenic factors (CAFs) can be measured in blood samples using ELISA and multiplex assay platforms. The CAFs examined in this study are listed below in Table 2. Numbers in parenthesis indicate bead region for each analyte.
The purpose of this analysis was to measure cytokine, chemokine and angiogenic factors in blood samples, such as plasma and serum, obtained from patients in clinical trials at both pre- and post-treatment with E7080 and to identify blood biomarkers which can be used to predict whether patients will respond to treatment with E7080. For these analyses, the following criteria of response were employed, namely:
(a) Tumor response: objective response rate (ORR) and % of maximum tumor shrinkage (MTS); and
(b) Survival Benefits: progression free survival (PFS)/overall survival (OS).
Materials and Methods: Patients who had metastatic/unresectable endometrial cancer after 1 or 2 prior platinum-based treatments received lenvatinib until disease progression or development of unmanageable toxicities. Patients received E7080 at a starting dose of 24 mg orally once daily in 28 day cycles. 133 patients were treated and evaluated for efficacy and molecular correlative analysis. This study was a part of the Phase 2 multicenter study of lenvatinib (ClinicalTrial.gov Identifier: NCT01111461). Baseline and post-treatment plasma samples were collected for molecular analyses. Plasma samples were collected at Cycle 1 Day 1 (pre-treatment) and Cycle 2 Day 1 (i.e., day […] post-treatment). Six mL of intravenous blood was drawn into EDTA vacutainer tubes. The tubes were gently inverted 6-8 times and then centrifuged at 3000 RPM for 10 minutes to separate the plasma from the red cell layer. Plasma was collected from the tube and dispensed into a 3.5 mL cryovial using a transfer pipette, and then stored immediately at −20° C. The plasma samples were shipped on dry ice and then ultimately transferred to −80° C. storage. Plasma samples from 122 patients were used for blood biomarker analysis. Serum from Cycle 1 day 1 (baseline), and cycle 2 day 1 were used in this analysis. The association of progression free survival (PFS) and overall survival (OS) were analyzed. Plasma samples were tested in batch format where all timepoints from the same subject were assayed on the same day. On the day of assay, samples were removed from −80° C. and allowed to thaw and reach room temperature. The plasma samples were tested in a panel of ELISA and multiplex kit as per the manufacturer's instructions. The ELISA plates were measured using a Molecular Devices UVmax kinetic microplate reader with SoftMax Pro 5.2 software. The multiplex assays were performed using the Bio-Rad Bio-Plex system with Bio-Plex Manager 4.1 software. Final protein concentrations (pg/mL) were calculated from the standard curve for each assay. Depending on the assay, plasma samples may have been diluted in assay buffer prior to testing. In these cases, protein concentrations were multiplied by the dilution factor.
A cut-off value of Ang-2 was used to test if patients with baseline Ang-2 levels have better clinical outcomes, such as ORR, PFS, and OS. […]

[1] = sub-group with high baseline Ang-2 (>2082 pg/ml), 98 patients
[2] = sub-group with low baseline Ang-2 (<2082 pg/ml), 24 patients
[3] = without stratification based on Ang-2 levels

SMILES: COc1cc2nccc(Oc3ccc(NC(=O)NC4CC4)c(Cl)c3)c2cc1C(N)=O [E7080, 4-(3-chloro-4-(cyclopropylaminocarbonyl)aminophenoxy)-7-methoxy-6-quinolinecarboxamide]
- Progression-Free Survival (months) Median (Full Set Analysis (N = 133)): 5.4 months
- Objective Response (CR + PR) (Full Set Analysis (N = 133), 24 mg orally once daily): 21.8%
- Objective Response (CR + PR) (High Ang-2 ≥2082.51 (N = 98)): 17.8%
- Overall Survival (months) Median (High Ang-2 ≥2082.51 (N = 98)): 8.9 months
- Progression-Free Survival (months) Median (High Ang-2 ≥2082.51 (N = 98)): 3.7 months
- Objective Response (CR + PR) (Low Ang-2 <2082.51 (N = 24)): 60.9%
- Progression-Free Survival (months) Median (Low Ang-2 <2082.51 (N = 24)): 9.5 months
- Median PFS (baseline ANG2(90), 0-25% subgroup): 225 days
- mOS (day) in each quartile (baseline ANG2(90), 1st (low) quartile): 541 days
- mOS (day) in each quartile (baseline ANG2(90), 2nd quartile): 353 days
- mOS (day) in each quartile (baseline ANG2(90), 3rd quartile): 256 days
- mOS (day) in each quartile (baseline ANG2(90), 4th (high) quartile): 260 days
- Median PFS (baseline ANG2(90), 25-50% subgroup): 167 days
- Median PFS (baseline ANG2(90), 50-75% subgroup): 145 days
- Median PFS (baseline ANG2(90), 75-100% subgroup): 77 days
- Median PFS (baseline Ang-2, 0-25% subgroup): 284 days
- mOS (day) in each quartile (baseline Ang-2, 1st (low) quartile): 541 days
- mOS (day) in each quartile (baseline Ang-2, 2nd quartile): 289 days
- mOS (day) in each quartile (baseline Ang-2, 3rd quartile): 268 days
- mOS (day) in each quartile (baseline Ang-2, 4th (high) quartile): 173 days
- Median PFS (baseline Ang-2, 25-50% subgroup): 167 days
- Median PFS (baseline Ang-2, 50-75% subgroup): 112 days
- Median PFS (baseline Ang-2, 75-100% subgroup): 77 days
- Median PFS (baseline HGF(86), 0-25% subgroup): 225 days
- mOS (day) in each quartile (baseline HGF(86), 1st (low) quartile): 567 days
- mOS (day) in each quartile (baseline HGF(86), 2nd quartile): 452 days
- mOS (day) in each quartile (baseline HGF(86), 3rd quartile): 273 days
- mOS (day) in each quartile (baseline HGF(86), 4th (high) quartile): 253 days
- Median PFS (baseline HGF(86), 25-50% subgroup): 205 days
- Median PFS (baseline HGF(86), 50-75% subgroup): 145 days
- Median PFS (baseline HGF(86), 75-100% subgroup): 109 days
- Median PFS (baseline IL-8(40), 0-25% subgroup): 281 days
- mOS (day) in each quartile (baseline IL-8(40), 2nd quartile): 315 days
- mOS (day) in each quartile (baseline IL-8(40), 3rd quartile): 340 days
- mOS (day) in each quartile (baseline IL-8(40), 4th (high) quartile): 127 days
- Median PFS (baseline IL-8(40), 25-50% subgroup): 222 days
- Median PFS (baseline IL-8(40), 50-75% subgroup): 145 days
- Median PFS (baseline IL-8(40), 75-100% subgroup): 71 days
- Median PFS (baseline IP-10(56), 0-25% subgroup): 167 days
- Median PFS (baseline IP-10(56), 25-50% subgroup): 174 days
- Median PFS (baseline IP-10(56), 50-75% subgroup): 220 days
- Median PFS (baseline IP-10(56), 75-100% subgroup): 77 days
- Median PFS (baseline MCP-1(58), 0-25% subgroup): 227 days
- mOS (day) in each quartile (baseline MCP-1(58), 1st (low) quartile): 463 days
- mOS (day) in each quartile (baseline MCP-1(58), 2nd quartile): 393 days
- mOS (day) in each quartile (baseline MCP-1(58), 3rd quartile): 340 days
- mOS (day) in each quartile (baseline MCP-1(58), 4th (high) quartile): 192 days
- Median PFS (baseline MCP-1(58), 25-50% subgroup): 155 days
- Median PFS (baseline MCP-1(58), 50-75% subgroup): 167 days
- Median PFS (baseline MCP-1(58), 75-100% subgroup): 111 days
- mOS (day) in each quartile (baseline MIP-1a(64), 2nd quartile): 293 days
- mOS (day) in each quartile (baseline MIP-1a(64), 3rd quartile): 353 days
- mOS (day) in each quartile (baseline MIP-1a(64), 4th (high) quartile): 264 days
- Median PFS (baseline MIP-la(64), 0-25% subgroup): 210 days
- Median PFS (baseline MIP-la(64), 25-50% subgroup): 155 days
- Median PFS (baseline MIP-la(64), 50-75% subgroup): 117 days
- Median PFS (baseline MIP-la(64), 75-100% subgroup): 166 days
- Median PFS (baseline PGF(91), 0-25% subgroup): 170 days
- mOS (day) in each quartile (baseline PGF(91), 2nd quartile): 350 days
- mOS (day) in each quartile (baseline PGF(91), 3rd quartile): 393 days
- mOS (day) in each quartile (baseline PGF(91), 4th (high) quartile): 173 days
- Median PFS (baseline PGF(91), 25-50% subgroup): 174 days
- Median PFS (baseline PGF(91), 50-75% subgroup): 218 days
- Median PFS (baseline PGF(91), 75-100% subgroup): 77 days
- Median PFS (baseline TNFa(80), 0-25% subgroup): 282 days
- mOS (day) in each quartile (baseline TNFa(80), 1st (low) quartile): 654 days
- mOS (day) in each quartile (baseline TNFa(80), 2nd quartile): 353 days
- mOS (day) in each quartile (baseline TNFa(80), 3rd quartile): 393 days
- mOS (day) in each quartile (baseline TNFa(80), 4th (high) quartile): 218 days
- Median PFS (baseline TNFa(80), 25-50% subgroup): 117 days
- Median PFS (baseline TNFa(80), 50-75% subgroup): 166 days
- Median PFS (baseline TNFa(80), 75-100% subgroup): 112 days
- Median PFS (baseline Tie-2, 0-25% subgroup): 273 days
- mOS (day) in each quartile (baseline Tie-2, 1st (low) quartile): 541 days
- mOS (day) in each quartile (baseline Tie-2, 2nd quartile): 282 days
- mOS (day) in each quartile (baseline Tie-2, 3rd quartile): 291 days
- mOS (day) in each quartile (baseline Tie-2, 4th (high) quartile): 192 days
- Median PFS (baseline Tie-2, 25-50% subgroup): 165 days
- Median PFS (baseline Tie-2, 50-75% subgroup): 155 days
- Median PFS (baseline Tie-2, 75-100% subgroup): 112 days
- Median PFS (baseline VEGFA(100), 0-25% subgroup): 158 days
- mOS (day) in each quartile (baseline VEGFA(100), 1st (low) quartile): 350 days
- mOS (day) in each quartile (baseline VEGFA(100), 2nd quartile): 541 days
- mOS (day) in each quartile (baseline VEGFA(100), 3rd quartile): 365 days
- mOS (day) in each quartile (baseline VEGFA(100), 4th (high) quartile): 260 days
- Median PFS (baseline VEGFA(100), 25-50% subgroup): 205 days
- Median PFS (baseline VEGFA(100), 50-75% subgroup): 165 days
- Median PFS (baseline VEGFA(100), 75-100% subgroup): 83 days
- Median PFS (baseline sIL-2Ra(76), 0-25% subgroup): 210 days
- mOS (day) in each quartile (baseline sIL-2Ra(76), 1st (low) quartile): 562 days
- mOS (day) in each quartile (baseline sIL-2Ra(76), 2nd quartile): 295 days
- mOS (day) in each quartile (baseline sIL-2Ra(76), 3rd quartile): 387 days
- mOS (day) in each quartile (baseline sIL-2Ra(76), 4th (high) quartile): 161 days
- Median PFS (baseline sIL-2Ra(76), 25-50% subgroup): 161 days
- Median PFS (baseline sIL-2Ra(76), 50-75% subgroup): 177 days
- Median PFS (baseline sIL-2Ra(76), 75-100% subgroup): 72.5 days
- ORR (sub-group with high baseline Ang-2 (>2082 pg/ml)): 18%
- mean OS [1]: 8.9 months
- mean PFS [1]: 3.7 months
- ORR (sub-group with low baseline Ang-2 (<2082 pg/ml)): 61%
- mean OS [2]: 23 months
- mean PFS [2]: 9.5 months
- ORR [3]: 21.1%
- mOS [3]: 10.6 months
- mPFS [3]: 5.4 months
